For data set [1], the system named is recombinant human truncated SHIP1 (tSHIP1). In words: Malachite green phosphatase release assay, SHIP1. In kind it is biochemical. The settings on record: for Malachite (250 µM) % Inhib. SHIP1: 250 µM compound; for Malachite (500 µM) % Inhib. SHIP1: 500 µM compound; for activity against SHIP1 (in words): summary of Table 1. How it is done: These compounds were then tested for their activity against the two SHIP paralogs, SHIP1 and SHIP2 in the colorimetric malachite green phosphatase assay. The malachite green assay detects the amount of free phosphate produced from enzymatic reactions with SHIP and an inositol phospholipid substrate. The Malachite assay is useful for ruling out compounds that are fluorescent or have aggregation issues and is inexpensive, so it was utilized as the primary screen even though it is not as sensitive as other assays.
(§1) 4.7. Malachite Green Phosphatase Release Assays
(§2) Malachite green assays to monitor phosphatase release (Echelon Biosciences) were performed with recombinant human truncated SHIP1 (tSHIP1) and SHIP2 (Echelon Biosciences). Serial dilutions of the compounds dissolved in DMSO were added to the recombinant enzymes diluted in reaction buffer Rx (50 mM Hepes pH 7.4, 150 mM NaCl, 1 mM MgCl2, 0.25 mM EDTA) in triplicate reaction wells in 96-well plates. After incubation for 2 min at room temperature, 2.5 µL of 1 mM phosphatidylinositol 3,4,5-trisphosphate diC8 (PI(3,4,5)P3-diC8, Echelon Biosciences) was added to each reaction to a final concentration of 100 µM in a final volume of 25 µL /well. Following a 20 min incubation at 37 °C, 100 µL of Malachite Green solution (Echelon Biosciences) was added to each well and the plates were incubated at room temperature in the dark for 15 min. Plates were then read at 620 nm on a plate reader (Synergy 2, BioTek, Santa Clara, CA, USA). In addition, 3α-Aminocholestane, a known SHIP1 inhibitor, and AS1949490, a known SHIP2 inhibitor, were used as positive controls.

The target in data set [2] is T1, SHIP2 (Homo sapiens, UniProt O15357).
T1 construct: purchased Echelon Biosciences
T1 sequence (O15357 1-1258): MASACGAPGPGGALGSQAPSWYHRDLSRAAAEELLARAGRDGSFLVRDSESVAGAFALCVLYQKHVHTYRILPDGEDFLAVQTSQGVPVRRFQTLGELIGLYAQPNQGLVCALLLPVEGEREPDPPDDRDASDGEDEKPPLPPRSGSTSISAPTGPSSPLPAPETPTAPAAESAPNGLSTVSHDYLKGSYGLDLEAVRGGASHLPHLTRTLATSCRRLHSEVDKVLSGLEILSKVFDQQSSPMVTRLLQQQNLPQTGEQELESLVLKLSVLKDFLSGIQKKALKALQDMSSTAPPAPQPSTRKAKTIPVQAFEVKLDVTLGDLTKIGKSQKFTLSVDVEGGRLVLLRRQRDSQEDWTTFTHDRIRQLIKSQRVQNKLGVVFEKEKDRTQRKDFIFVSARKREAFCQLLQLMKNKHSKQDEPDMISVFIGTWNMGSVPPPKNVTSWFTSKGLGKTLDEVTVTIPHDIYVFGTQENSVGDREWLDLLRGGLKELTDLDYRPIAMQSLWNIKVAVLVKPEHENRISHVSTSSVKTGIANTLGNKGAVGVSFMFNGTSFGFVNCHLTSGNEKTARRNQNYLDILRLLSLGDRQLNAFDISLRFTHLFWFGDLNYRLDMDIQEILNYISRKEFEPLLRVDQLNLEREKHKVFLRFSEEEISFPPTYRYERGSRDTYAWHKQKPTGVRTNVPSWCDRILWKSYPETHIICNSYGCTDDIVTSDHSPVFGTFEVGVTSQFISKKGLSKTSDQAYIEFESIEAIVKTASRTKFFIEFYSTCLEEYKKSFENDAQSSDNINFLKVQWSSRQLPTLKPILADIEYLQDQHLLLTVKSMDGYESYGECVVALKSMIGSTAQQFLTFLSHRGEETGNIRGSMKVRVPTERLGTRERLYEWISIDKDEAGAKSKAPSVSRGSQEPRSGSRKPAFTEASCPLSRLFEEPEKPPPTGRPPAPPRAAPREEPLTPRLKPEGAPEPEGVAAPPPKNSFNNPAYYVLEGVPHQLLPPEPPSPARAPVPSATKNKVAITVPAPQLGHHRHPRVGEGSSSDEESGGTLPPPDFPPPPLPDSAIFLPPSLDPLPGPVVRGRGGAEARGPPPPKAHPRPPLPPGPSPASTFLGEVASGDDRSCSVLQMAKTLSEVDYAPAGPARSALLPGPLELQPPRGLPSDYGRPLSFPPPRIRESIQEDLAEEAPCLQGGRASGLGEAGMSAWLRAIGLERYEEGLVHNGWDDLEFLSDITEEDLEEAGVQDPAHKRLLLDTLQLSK
Put plainly: Malachite green phosphatase release assay, SHIP2. The format is biochemical. The settings on record: for inhibition at 250 µM: read-out: Malachite (250 µM) % Inhib. SHIP2; for inhibition at 500 µM: read-out: Malachite (500 µM) % Inhib. SHIP2; for activity against SHIP2 (in words): summary of Table 1. The method, then:
(§3) These compounds were then tested for their activity against the two SHIP paralogs, SHIP1 and SHIP2 in the colorimetric malachite green phosphatase assay. The malachite green assay detects the amount of free phosphate produced from enzymatic reactions with SHIP and an inositol phospholipid substrate.
as §1, §2

The target in data set [3] is T2, tSHIP1 (Homo sapiens, UniProt Q92835).
T2 sequence (Q92835 399-715 limits assumed): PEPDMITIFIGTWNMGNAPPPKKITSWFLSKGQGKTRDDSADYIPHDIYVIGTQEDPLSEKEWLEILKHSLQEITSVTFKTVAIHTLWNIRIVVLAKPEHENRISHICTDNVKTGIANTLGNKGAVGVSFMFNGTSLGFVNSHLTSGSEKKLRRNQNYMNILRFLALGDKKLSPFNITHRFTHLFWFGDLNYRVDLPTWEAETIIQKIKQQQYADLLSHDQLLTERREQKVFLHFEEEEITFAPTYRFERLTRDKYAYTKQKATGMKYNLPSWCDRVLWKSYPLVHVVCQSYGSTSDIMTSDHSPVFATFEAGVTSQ
Put plainly: Fluorescence Polarization (FP) assay for the detection of PI(3,4)P2, SHIP1. In kind it is biochemical. To be noted: FP assay; read-out: IC50 SHIP1 (Via FP). How it is done: as §3
4.8. Fluorescence Polarization (FP) Assays for the Detection of PI(3,4)P2
The FP Assay for the detection of PI(3,4)P2 (Echelon Biosciences) was performed using tSHIP1 [48] with serial dilutions of the tryptamines in DMSO according to the manufacturer’s recommendation as previously described. […] 40 µL of 4 µM PIP3 (PI(3,4,5)P3-diC8) in Rx buffer is added to each reaction and incubated at 37 °C for 20 min, followed by heat inactivation for 3 min at 95 °C. Reactions were spun down briefly and 10 µL of each reaction was added in 6 replicate wells to a black 384-well plate provided with the FP kit. 10 µL of 1X reconstituted Detector (a phosphoinositide binding protein) in PBS is then added to each well, followed by 5 µL of 1X freshly diluted Probe (in PBS, a fluorophore-labeled phosphoinositide) protected from light. Assay plates are gently tapped to mix, the plate is sealed and spun down briefly and the reaction is allowed to equilibrate for 60 min at room temperature protected from light.

In data set [4] the target is T1, SHIP2. Put plainly: Fluorescence Polarization (FP) assay for the detection of PI(3,4)P2, SHIP2. The format is biochemical. The settings on record: read-out: IC50 SHIP2 (via FP).
Data set [5] is described as follows: Behaviour of compound when mixed with assay buffer. In kind it is physicochemical. How it is done: Compounds with modifications of the primary amine of the tryptamine were also tested. […] While SHIP1 agonists may have applications as anti-inflammatories, the agonist activity of 15 was weak and therefore was not further pursued. […] While these analogs may present a path towards selective inhibitors of SHIP2, these compounds will not be useful in determining the effects of pan-SHIP inhibition in tumor models.

Each structure is given as a SMILES string. Read-outs that look alike come from different tables or passages of the source. Marks after values point to notes of the source that are not given here.

On to `CNCCc1c(C)n(Cc2ccccc2Cl)c2ccc(SC)cc12` [Compound 13, (2{1-[(2-Chlorophenyl)methyl]-2-methyl-5-(methylsulfanyl-1H-indol-3-yl}ethyl)methylaminium chloride], for which, in data set [1], the “Malachite (250 µM) % Inhib. SHIP1” value was determined as 0%, the “Malachite (500 µM) % Inhib. SHIP1” value is 9% and the “activity against SHIP1 (in words)” value was “no inhibition”. Moreover, the inhibition at 250 µM in data set [2] (250 µM compound) came out at 14%. For the same compound, the inhibition at 500 µM in data set [2] (500 µM compound) is 38%.

Take `CSc1ccc2c(c1)c(CCN)c(C)n2Cc1ccc(Br)cc1.Cl` [Compound 7c, 2-(1-(4-Bromobenzyl)-2-methyl-5-(methylthio)-1H-indol-3-yl)ethanaminium chloride]: in data set [1], the “Malachite (250 µM) % Inhib. SHIP1” value was 3% and the “Malachite (500 µM) % Inhib. SHIP1” value came to 47%. The half-inhibitory concentration (IC50) in data set [3] was 51 µM. The IC50 in data set [4] worked out at 58 µM. The inhibition at 250 µM in data set [2] (250 µM compound) was found to be 30%. Further, the inhibition at 500 µM in data set [2] (500 µM compound) amounted to 38%.

Turning to `CSc1ccc2[nH]c(C)c(CCN)c2c1.Cl` [Compound 7f, 2-(2-Methyl-5-(methylthio)-1H-indol-3-yl)ethanaminium chloride], in data set [1], the “Malachite (250 µM) % Inhib. SHIP1” value was 0%, the “Malachite (500 µM) % Inhib. SHIP1” value is given as 0% and the “activity against SHIP1 (in words)” value is recorded as “virtually no activity”. Also, in data set [2], the inhibition at 250 µM was 0%, the inhibition at 500 µM amounted to 2% and the “activity against SHIP2 (in words)” value is “virtually no activity”.

As to `CSc1ccc2c(c1)c(CCN(C)C)c(C)n2Cc1ccccc1Cl` [Compound 14, (2{1-[(2-Chlorophenyl)methyl]-2-methyl-5-(methylsulfanyl-1H-indol-3-yl}ethyl)dimethylaminium chloride], in data set [1], the “Malachite (250 µM) % Inhib. SHIP1” value is given as 0%, the “Malachite (500 µM) % Inhib. SHIP1” value is recorded as 5% and the “activity against SHIP1 (in words)” value was “inactive”. Also, the inhibition at 250 µM in data set [2] (250 µM compound) came out at 0%. For the same compound, in data set [2] (500 µM compound), the inhibition at 500 µM amounted to 6%. The “activity against SHIP2 (in words)” value in data set [2] is “inactive”.

Regarding `CCNCCc1c(C)n(Cc2ccccc2Cl)c2ccc(SC)cc12` [Compound 17, (2{1-[(2-Chlorophenyl)methyl]-2-methyl-5-(methylsulfanyl-1H-indol-3-yl}ethyl)ethylaminium chloride], in data set [1], the “Malachite (250 µM) % Inhib. SHIP1” value amounted to 1%, the “Malachite (500 µM) % Inhib. SHIP1” value amounted to 21% and the “activity against SHIP1 (in words)” value is recorded as “no inhibition”. Further, the inhibition at 250 µM in data set [2] (250 µM compound) is 13%. Besides, the inhibition at 500 µM in data set [2] (500 µM compound) turned out to be 47%.

Take `CSc1ccc2c(c1)c(CCN)c(C)n2Cc1ccccc1.Cl` [Compound 7e, 2-(1-Benzyl-2-methyl-5-(methylthio)-1H-indol-3-yl)ethanaminium chloride]: in data set [1], the “Malachite (250 µM) % Inhib. SHIP1” value was 0%, the “Malachite (500 µM) % Inhib. SHIP1” value turned out to be 40% and the “activity against SHIP1 (in words)” value is “active analog”. In addition, in data set [3], the half-inhibitory concentration (IC50) came to 13 µM. For the same compound, the 50% inhibitory concentration (IC50) in data set [4] is 12 µM. For the same compound, the inhibition at 250 µM in data set [2] (250 µM compound) was 28%. Moreover, the inhibition at 500 µM in data set [2] (500 µM compound) amounted to 39%. The “activity against SHIP2 (in words)” value in data set [2] is recorded as “active analog”.

Take `CSc1ccc2c(c1)c(CCNS(C)(=O)=O)c(C)n2Cc1ccccc1Cl` [Compound 15, N-(2{1-[(2-Chlorophenyl)methyl]-2-methyl-5-(methylsulfanyl)-1H-indol-3-yl}ethyl) methanesulfonamide]: in data set [1], the “Malachite (250 µM) % Inhib. SHIP1” value is reported as −10%, the “Malachite (500 µM) % Inhib. SHIP1” value is −27% and the “activity against SHIP1 (in words)” value was “weak agonist”.

As to `CSc1ccc2c(c1)c(CCN)c(C)n2Cc1ccc(Cl)cc1.Cl` [Compound 7b, 2-(1-(4-Chlorobenzyl)-2-methyl-5-(methylthio)-1H-indol-3-yl)ethanaminium chloride], in data set [1], the “Malachite (250 µM) % Inhib. SHIP1” value is on record as 0%, the “Malachite (500 µM) % Inhib. SHIP1” value was found to be 33% and the “activity against SHIP1 (in words)” value is recorded as “significant activity”. Moreover, the 50% inhibitory concentration (IC50) in data set [3] was 11 µM. Also, in data set [2] (250 µM compound), the inhibition at 250 µM turned out to be 18%. The inhibition at 500 µM in data set [2] (500 µM compound) came out at 49%. Besides, the “activity against SHIP2 (in words)” value in data set [2] is “significant activity”.

As to `CSc1ccc2c(c1)c(CCNC(C)=O)c(C)n2Cc1ccccc1Cl` [Compound 16], in data set [1], the “Malachite (250 µM) % Inhib. SHIP1” value stood at 25% ^a and the “Malachite (500 µM) % Inhib. SHIP1” value stood at 0% ^a. The “solubility behaviour in buffer” value in data set [5] was “tended to precipitate when mixed with buffer”. In data set [2] (250 µM compound), the inhibition at 250 µM came out at 0%. The inhibition at 500 µM in data set [2] (500 µM compound) came to 0%.
